Results as given in US6337411B2, “Stromelysin inhibitors” (Aventis Pharma Deutschland GmbH, priority 1999, dated 2002).

What was measured:
[1] = biological target: T1, catalytic domain of human stromelysin (MMP-3) (Homo sapiens, UniProt P08254); assay: Enzymatic activity of the catalytic domain of human stromelysin (fluorogenic substrate); format: biochemical; details: inhibitor concentration giving 50% inhibition of the enzyme; pH 6.5 buffer; 15 minutes preincubation; fluorescence 328 nm (ex)/393 nm (em)
T1 construct: enzymatic activity of the catalytic domain of human stromelysin; made in house
T1 sequence (P08254 100-272 limits assumed): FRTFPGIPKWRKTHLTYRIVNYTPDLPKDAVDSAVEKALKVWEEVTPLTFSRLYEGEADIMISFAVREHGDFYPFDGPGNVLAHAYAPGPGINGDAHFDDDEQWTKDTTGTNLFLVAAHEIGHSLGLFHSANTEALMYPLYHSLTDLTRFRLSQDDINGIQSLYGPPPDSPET
Protocol: Preparation and determination of the enzymatic activity of the catalytic domain of human stromelysin
The enzyme stromelysin (MMP-3) was prepared according to Ye et al. (Biochemistry; 31 (1992) pages 11231-11235). For the measurement of the enzyme activity or of the enzyme inhibitor action, 70 μl of buffer solution and 10 μl of enzyme solution were incubated for 15 minutes with 10 μl of a 10% strength (v/v) aqueous dimethyl sulfoxide solution, which optionally contained the enzyme inhibitor. After addition of 10 μl of a 10% strength (v/v) aqueous dimethyl sulfoxide solution which contained I mmol/l of the substrate, the enzyme reaction was monitored by fluorescence spectroscopy (328 nm (ex)/393 nm (em)). The enzyme activity is shown as the extinction increase/minute. The IC50 value was determined as that inhibitor concentration which in each case led to a 50% inhibition of the enzyme.
The buffer solution contained 0.05% Brij (Sigma, Deisenhofen, Germany) and 0.1 mol/l of tris/HCl, 0.1 mol/l of NaCl, 0.01 mol/l of CaCl2 and 0.1 mol/l of piperazine-N,N′-bis[2-ethanesulfonic acid] (pH=6.5).
The enzyme solution contained 5 μg/ml of an enzyme domain prepared according to Ye et al. The substrate solution contained 1 mmol/l of the fluorogenic substrate (7-methoxycoumarin-4-yl)acetyl-Pro-Leu-Gly-Leu-3-(2′,4′-dinitrophenyl)-L-2,3-diaminopropionyl-Ala-Arg-NH2 (Bachem, Heidelberg, Germany).

[2] = Stability of isolated stromemycin in solution (properties); format: physicochemical; details: neutral medium vs strongly acidic and alkaline solution
Source text: (§1) The stromemycin obtained has the following properties: […]

[3] = Solubility of isolated stromemycin (properties); format: physicochemical; details: solvents methanol, DMSO
Source text: as §1

IC50 [1]: 115 µM
Structure (SMILES): CCCC=CC=CCCc1cc(OC(=O)c2c(CCC=CC=CCCC)cc(O)c(C3OC(CO)C(O)C(O)C3O)c2O)cc(O)c1C(=O)O (stereo not drawn) [stromemycin]
Stability [2]: stable in neutral medium, but unstable in strongly acidic and alkaline solution
Solubility [3]: soluble in methanol, dimethyl sulfoxide (DMSO)
